# Measured values reported in article PMC12406198, “Decadentate Acyclic Chelators for Lanthanum Radiopharmaceuticals” (Journal of Medicinal Chemistry, 2025).
# Read-outs that look alike come from different tables or passages of the source.
# Key:
# [1] = Stability constants of La^3+ complexes by pH potentiometry; type: physicochemical; conditions: for pLa: −log[La^3+]free for [L] = 10 μM and [La^3+] = 1 μM at pH 7.4 and 25 °C; for log K LaL ^La: 1:2 L:La^3+ complex; for log K LaL ^La / log K La2L ^OH / log K La2LOH ^OH / log K LaL / pH at which dissociation of the La^3+ complex occurs (speciation diagrams) / log K LaL ^OH: I = 0.15 M NaCl, 25 °C; for pH at which dissociation of the La^3+ complex occurs (speciation diagrams): cLa3+ = cLig = 10^–3 M; for log K LaL ^OH: hydroxo-complex; for amount of La^3+ not complexed at the beginning of the titration: pH 1.7
# Description: The stability constants of the La^3+ complexes were determined using pH potentiometry (I = 0.15 NaCl). A significant amount of the metal ion is not complexed by the TPADAC^4– ligand at the beginning of the titration at pH 1.7 (∼20%), which allows for stability constant determination using potentiometry. In the case of TPAEN^4– the amount of free La^3+ was small (∼4%), but the stability constants could be determined by fitting the titration data using both 1:1 and 1:2 (TPAEN^4–:La^3+) stoichiometries (Figure S1, Supporting Information). The TPADAC^4– ligand also forms complexes with 1:1 and 1:2 stoichiometries (Figure S2, Supporting Information).
# The thermodynamic stability of the complexes at physiologically relevant pH was assessed by calculating pLa values, defined as −log[La^3+]free for [L] = 10 μM and [La^3+] = 1 μM at pH 7.4 and 25 °C following the recommendation of Raymond. This is a result of the high stability constants (log K LaL) that characterize the formation of these complexes, as well as the relatively low basicity of these ligands. Indeed, cyclohexyl derivatives TPADAC^4– and CHXOCTAPA^4– display considerably higher basicity than the ethyl analogues, as indicated by the Σ log K i ^H (i = 1–5) values shown in Table . Similarly, DTPA and DO3A derivatives are characterized by rather high basicities, which results in relatively low pLa values.
# (§1) The pH-potentiometric titrations were carried out with a Methrohm 785 DMP titrator using a Metrohm-6.0233.100 combined electrode. The titrated solutions (5.000 mL) were thermostated at 25 °C and stirred and kept under inert gas atmosphere (N2) to avoid the effect of CO2. The pH-calibration of the electrode was performed using KH-phthalate (pH = 4.005) and borax (pH = 9.177) buffers. The concentrations of the ligand stock solutions were determined by pH-potentiometric titration. The protonation constants of the TPAEN^4– (in the pH range of 2.19–12.00 a total of 213 data pairs by titrating a 2.72 mM a ligand solution) and TPADAC^4– (in the pH range of 1.88–11.85 a total of 208 data pairs by titrating a 2.32 mM ligand solution), the stability and protonation constants of the complexes formed with La^3+ and the formation constants of their dinuclear complexes were determined by pH-potentiometric titration. The metal-to-ligand concentration ratios were 1:1 and 2:1. For the 1:1 ratio a total of 240 data pairs were recorded for a H4TPAEN concentration of 2.29 mM in the pH range of 1.77–11.86, while a total of 222 data pairs were collected in the pH range 1.72–11.85 for a 2.72 mM solution of H4TPADAC. For the 2:1 ratio we collected 259 data pairs for a 2.31 mM solution of H4TPAEN in the pH range of 1.73–11.82, and 259 data pairs for a 2.71 mM concentration of H4TPADAC in the pH range of 1.70–11.85. The calculation of [H^+] from the measured pH values was performed with the use of the method proposed by Irving et al. by titrating a 0.01 M HCl solution (I = 0.15 M NaCl) with a standardized NaOH solution. The differences between the measured and calculated pH values were used to obtain the [H^+] concentrations from the pH-data obtained in the titrations. The ionic product of water was determined from the same experiment in the pH range 11.25–11.85. The protonation and stability constants were calculated from the titration data with the PSEQUAD program. The quality of the fits was assessed with the fitting parameter (FP) calculated by PSEQUAD, which is defined as 2 FP=∑i=1n(Vi,calc−Vi,meas)^2/n−k
# [2] = cited from earlier work
# [3] = Ligand protonation constants by pH-potentiometric titration; type: physicochemical; conditions: I = 0.15 M NaCl, 25 °C; for Σ log K i ^H (i = 1–5): sum of the constants measured here
# Description: Ligand protonation constants were determined in 0.15 M NaCl using potentiometric titrations (Figures S1–S2, Supporting Information). The results are compared with those reported previously for OCTAPA^4– and CHXOCTAPA^4– in Table , while the speciation diagrams are shown in Figure S3 (Supporting Information). The first two protonation constants of these ligands, characterized by log K 1 ^H and log K 2 ^H, correspond to the protonation of amine groups, while the remaining protonation constants are ascribed to the carboxylate groups of picolinate and acetate moieties. ,
# as §1
# [4] = Dissociation kinetics: transmetalation of La^3+ complexes with Cu^2+ as scavenger (UV-vis); type: physicochemical; conditions: for k 3 ^Cu: Cu^2+-assisted pathway; for k 3 ^Cu / k 6 ^Cu / k 2 / K Cu / k 1: 25 °C, 0.15 M NaCl; for k obs for [Cu^2+] = 1 nM / k obs for [Cu^2+] = 1 μM: calculated at pH 7.4; for k 6 ^Cu: dinuclear hydroxo-complex pathway; for k 2: diprotonated pathway; for K Cu: formation of ternary LaLCu complex; for k 1: proton-assisted dissociation of La^3+ complex
# Description: The inertness of metal complexes for radiopharmaceutical applications is important to ensure that the radioisotope is not released in vivo off-target. Furthermore, the detailed study of the dissociation mechanism of the complexes provides useful information for ligand design. Thus, we performed a detailed investigation of the dissociation kinetics of the [La(TPAEN)]^− and [La(TPADAC)]^− complexes using Cu^2+ as a scavenger. The reactions were studied spectrophotometrically in the approximate proton concentration range 1.1 × 10^–5–1.6 × 10^–2 M, which corresponds to a pH range of about 1.8–5.0. A large excess of Cu^2+ was used to ensure pseudo-first order conditions.
# The latter may proceed through the formation of mono- or diprotonated intermediates, with associated rate constants k 1 and k 2, respectively. […] Thus, we analyzed the kinetic data using the following expression: 1 kobs=k0+k1[H^+]+k2[H^+]^2+k3[Cu^2+]+k6[Cu^2+]Kw/[H^+]/1+KCu[Cu^2+] Here, k 1, k 2, k 3 ^Cu and k 6 ^Cu are the rate constants defined above, k 0 is the rate constant characterizing the spontaneous dissociation mechanism, K w is the ionic product of water (fixed at pK w = 13.72) and K Cu is the equilibrium constant for the formation of the ternary complex (K Cu= [LaLCu]/[Cu^2+][LaL]).
# The rates of the metal exchange reactions of the [La(TPAEN)]^− and [La(TPADAC)]^− complexes with Cu(II) were studied by using UV–vis spectrophotometry following the formation of corresponding Cu(II) complexes. The metal exchange reactions of [La(TPAEN)]^− and [La(TPADAC)]^− were examined by conventional spectrophotometric methods tracking the changes in absorption at 305 nm within the pH range of 1.84 to 4.94 (for [La(TPAEN)]^−). The concentration of the complexes was 0.252 mM, while the Cu(II) ion was applied in high excess (12 to 42 times) to ensure pseudo-first-order conditions. The temperature was maintained at 25 °C, and the ionic strength of the solutions was kept constant at 0.15 M NaCl. Dimethylpiperazine (DMP, 50 mM) buffer was used to maintain the pH constant (log K 2 ^H = 4.18) in the pH range of 3.40 to 4.89 (for [La(TPADAC)]^−). At lower pH, the data were supplemented by following the reactions in the range pH of 2.57 to 3.23 using chloroacetic acid (log K 2 ^H = 2.87) at the same concentration. The pseudo-first-order rate constants (k obs) were calculated by fitting the absorbance vs time data to eq : 3 At=(A0−Ae)e^−kobst+Ae where A t , A 0 and A e are the absorbances recorded at time t, at the start of the reaction and upon reaching equilibrium, respectively. The fittings were performed with the computer program Micromath Scientist, version 2.0 (Salt Lake City, UT) by using a standard least-squares procedure.
# [5] = literature value, cited from earlier work
# [6] = Ligand protonation constants by pH-potentiometric titration; type: physicochemical; conditions: sum of literature protonation constants of related ligands
compound,measurement,setting,value
"O=C(O)c1cccc(CN2CCOCCOCCN(Cc3cccc(C(=O)O)n3)CCOCCOCC2)n1 [MACROPA^2–, N,N’-bis[(6-carboxy-2-pyridil)methyl]-4,13-diaza-18-crown-6]",pLa,[1]; from literature constants,15.6
same,log K LaL,"[2]; 0.1 M KCl, ref footnote d",14.99
same,log K LaL ^H,"[2]; 0.1 M KCl, ref footnote d",2.28 ^d
same,log K LaL,"[2]; 0.1 M NaCl, ref footnote e",13.9
"O=C(O)c1cccc(CN(CCN(Cc2cccc(C(=O)O)n2)Cc2cccc(C(=O)O)n2)Cc2cccc(C(=O)O)n2)n1 [TPAEN^4–, N,N,N′N′-tetrakis[(6-carboxypyridin-2-yl)methyl]-ethylenediamine]",log K 1 ^H,[3],7.87(1)
same,log K 2 ^H,[3],5.14(1)
same,log K 3 ^H,[3],3.89(1)
same,log K 4 ^H,[3],3.28(1)
same,log K 5 ^H,[3],2.55(1)
same,log K 6 ^H,[3],0.89(8)
same,Σ log K i ^H (i = 1–5),[3],22.73
same,log K LaL ^La,[1],2.31(13)
same,log K La2L ^OH,[1],6.80(10)
same,log K La2LOH ^OH,[1],9.57(10)
same,log K LaL,[1],19.16(8)
same,pH at which dissociation of the La^3+ complex occurs (speciation diagrams),[1],< 2.5
same,log K LaL ^OH,[1],12.62(9)
same,amount of La^3+ not complexed at the beginning of the titration,[1],~4%
same,pLa,[1]; from constants measured here,19.5
same,k 3 ^Cu,[4],0.74 ± 0.05 M^–1 s^–1
same,k obs for [Cu^2+] = 1 nM,[4],4.34 × 10^–7 s^–1
same,k obs for [Cu^2+] = 1 μM,[4],3.45 × 10^–4 s^–1
same,k 6 ^Cu,[4],(7.2 ± 0.5)×10^8 M^–2 s^–1
same,k 2,[4],110.93 ± 10.42 M^–2 s^–1
same,K Cu,[4],42.0 ± 4.5 M^–1
same,k 1,[4],2.24 ± 0.13 M^–1 s^–1
"O=C(O)CN1CCN(CC(=O)O)CCN(Cc2cccc(C(=O)O)n2)CCN(CC(=O)O)CC1 [DO3Apic^4–, 2,2′,2″-(10-((6-carboxypyridin-2-yl)methyl)-1,4,7,10-tetraazacyclododecane-1,4,7-triyl)triacetic acid]",pLa,[1]; from literature constants,16.6
same,log K LaL,"[2]; 0.1 M KCl, ref footnote f",21.17
same,log K LaL ^H,"[2]; 0.1 M KCl, ref footnote f",2.55
"O=C(O)CN(CCN(CC(=O)O)CC(=O)O)CC(=O)O [EDTA^4–, ethylenediamine-N,N,N′,N′-tetraacetic acid]",log K 1 ^H,[5]; ref footnote f,9.17
same,log K 2 ^H,[5]; ref footnote f,5.99
same,log K 3 ^H,[5]; ref footnote f,2.73
same,log K 4 ^H,[5]; ref footnote f,2.01
same,log K 5 ^H,[5]; ref footnote f,1.38
same,Σ log K i ^H (i = 1–5),[6],21.27
"O=C(O)CN(CC(=O)O)[C@@H]1CCCC[C@H]1N(CC(=O)O)CC(=O)O (relative stereo) [CDTA^4–, 2,2′,2″,2‴-((trans-cyclohexane-1,2-diyl)bis(azanetriyl))tetraacetic acid]",log K 1 ^H,[5]; ref footnote f,9.36
same,log K 2 ^H,[5]; ref footnote f,5.95
same,log K 3 ^H,[5]; ref footnote f,3.62
same,log K 4 ^H,[5]; ref footnote f,2.57
same,log K 5 ^H,[5]; ref footnote f,1.49
same,Σ log K i ^H (i = 1–5),[6],22.99
O=C(O)c1cccc(CN(Cc2cccc(C(=O)O)n2)[C@@H]2CCCC[C@H]2N(Cc2cccc(C(=O)O)n2)Cc2cccc(C(=O)O)n2)n1 [TPADAC^4–],log K 1 ^H,[3],10.79(1)
same,log K 2 ^H,[3],4.95(1)
same,log K 3 ^H,[3],4.06(1)
same,log K 4 ^H,[3],3.46(1)
same,log K 5 ^H,[3],2.94(1)
same,log K 6 ^H,[3],0.67(6)
same,Σ log K i ^H (i = 1–5),[3],26.20
same,log K LaL ^La,[1],2.85(1)
same,log K La2L ^OH,[1],6.99(4)
same,log K La2LOH ^OH,[1],9.40(4)
same,log K LaL,[1],19.55(1)
same,pH at which dissociation of the La^3+ complex occurs (speciation diagrams),[1],< 3.0
same,log K LaL ^OH,[1],12.06(1)
same,amount of La^3+ not complexed at the beginning of the titration,[1],~20%
same,pLa,[1]; from constants measured here,17.1
same,k 3 ^Cu,[4],(7.8 ± 2.2)×10^–3 M^–1 s^–1
same,k obs for [Cu^2+] = 1 nM,[4],1.123 × 10^–8 s^–1
same,k obs for [Cu^2+] = 1 μM,[4],7.381 × 10^–6 s^–1
same,k 6 ^Cu,[4],(1.5 ± 0.3)×10^7 M^–2 s^–1
same,k 2,[4],232.3 ± 36.8 M^–2 s^–1
same,K Cu,[4],74.3 ± 30.2 M^–1
same,k 1,[4],0.097 ± 0.036 M^–1 s^–1
"O=C(O)CN(CCN(CC(=O)O)Cc1cccc(C(=O)O)n1)Cc1cccc(C(=O)O)n1 [OCTAPA^4–, 6,6′-((ethane-1,2-diylbis((carboxymethyl)azanediyl))bis(methylene))dipicolinic acid]",pLa,[1]; from literature constants,19.7
same,log K 1 ^H,[5]; ref footnote a,8.52
same,log K 2 ^H,[5]; ref footnote a,5.40
same,log K 3 ^H,[5]; ref footnote a,3.65
same,log K 4 ^H,[5]; ref footnote a,2.97
same,log K 5 ^H,[5]; ref footnote a,1.66
same,log K 1 ^H,[5]; ref footnote b,8.58
same,log K 2 ^H,[5]; ref footnote b,5.43
same,log K 3 ^H,[5]; ref footnote b,3.75
same,log K 4 ^H,[5]; ref footnote b,3.08
same,log K 5 ^H,[5]; ref footnote b,2.21
same,log K 6 ^H,[5]; ref footnote b,1.61 ^b
same,Σ log K i ^H (i = 1–5),[6],22.20
same,log K LaL,"[2]; 0.15 M NaCl, ref footnote a",19.92
